Ki, Ratio and K inact data for 15 molecules are collected here from ChEMBL document CHEMBL1132848, “1H-pyrazole-1-carboxamidines: new inhibitors of nitric oxide synthase” (Bioorg Med Chem Lett, 2000).

In assay [1] the target is T1, Nitric oxide synthase 1 (Rattus norvegicus, UniProt P29476). Put plainly: Inhibition against neuronal Nitric Oxide Synthase(nNOS).
In the next assay the target is T2, Nitric oxide synthase 3 (Bos taurus, UniProt P29473).
T2 sequence (P29473 whole entry): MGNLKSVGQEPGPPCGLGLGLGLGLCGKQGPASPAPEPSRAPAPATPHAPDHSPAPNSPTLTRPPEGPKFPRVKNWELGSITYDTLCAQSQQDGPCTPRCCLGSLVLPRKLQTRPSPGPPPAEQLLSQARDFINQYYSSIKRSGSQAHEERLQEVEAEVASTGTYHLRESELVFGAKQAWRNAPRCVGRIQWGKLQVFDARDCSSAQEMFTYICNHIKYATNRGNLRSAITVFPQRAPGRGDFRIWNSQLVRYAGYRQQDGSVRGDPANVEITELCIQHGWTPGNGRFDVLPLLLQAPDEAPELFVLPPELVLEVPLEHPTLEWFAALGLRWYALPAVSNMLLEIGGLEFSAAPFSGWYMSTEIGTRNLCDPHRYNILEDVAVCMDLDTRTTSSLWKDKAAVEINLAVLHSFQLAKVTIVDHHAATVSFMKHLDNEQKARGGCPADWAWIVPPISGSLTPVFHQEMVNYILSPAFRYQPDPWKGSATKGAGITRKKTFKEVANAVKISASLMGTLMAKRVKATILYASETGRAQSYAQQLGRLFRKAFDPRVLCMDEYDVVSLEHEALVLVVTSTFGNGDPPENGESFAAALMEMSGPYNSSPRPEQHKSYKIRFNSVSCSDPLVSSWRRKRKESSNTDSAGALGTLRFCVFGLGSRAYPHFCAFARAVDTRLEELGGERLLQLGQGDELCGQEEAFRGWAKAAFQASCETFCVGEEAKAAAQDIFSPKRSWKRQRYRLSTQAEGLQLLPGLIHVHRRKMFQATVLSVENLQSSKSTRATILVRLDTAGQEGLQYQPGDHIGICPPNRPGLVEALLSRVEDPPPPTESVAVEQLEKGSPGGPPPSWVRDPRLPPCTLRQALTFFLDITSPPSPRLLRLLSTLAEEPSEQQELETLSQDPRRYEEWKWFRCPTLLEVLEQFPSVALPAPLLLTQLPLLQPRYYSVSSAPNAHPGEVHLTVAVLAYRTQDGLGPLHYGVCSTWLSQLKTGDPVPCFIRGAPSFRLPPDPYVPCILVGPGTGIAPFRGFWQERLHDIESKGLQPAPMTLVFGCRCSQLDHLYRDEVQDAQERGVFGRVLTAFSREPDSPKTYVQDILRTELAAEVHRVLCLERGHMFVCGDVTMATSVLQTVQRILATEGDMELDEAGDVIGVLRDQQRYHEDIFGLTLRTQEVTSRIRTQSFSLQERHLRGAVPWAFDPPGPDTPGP
Put plainly: Inhibition against endothelial Nitric Oxide Synthase(eNOS).

Assay [2] in a line: Selectivity for neuronal (nNOS) and endothelial Nitric Oxide Synthase(eNOS). The arrangement: reference not given here.
A short description of assay [3]: Selectivity for neuronal(nNOS) and induced Nitric Oxide Synthase(iNOS). Also on record: reference not given here.
Assay [4] deals with T3, Nitric oxide synthase, inducible (Mus musculus, UniProt P29477).
T3 sequence (P29477 whole entry): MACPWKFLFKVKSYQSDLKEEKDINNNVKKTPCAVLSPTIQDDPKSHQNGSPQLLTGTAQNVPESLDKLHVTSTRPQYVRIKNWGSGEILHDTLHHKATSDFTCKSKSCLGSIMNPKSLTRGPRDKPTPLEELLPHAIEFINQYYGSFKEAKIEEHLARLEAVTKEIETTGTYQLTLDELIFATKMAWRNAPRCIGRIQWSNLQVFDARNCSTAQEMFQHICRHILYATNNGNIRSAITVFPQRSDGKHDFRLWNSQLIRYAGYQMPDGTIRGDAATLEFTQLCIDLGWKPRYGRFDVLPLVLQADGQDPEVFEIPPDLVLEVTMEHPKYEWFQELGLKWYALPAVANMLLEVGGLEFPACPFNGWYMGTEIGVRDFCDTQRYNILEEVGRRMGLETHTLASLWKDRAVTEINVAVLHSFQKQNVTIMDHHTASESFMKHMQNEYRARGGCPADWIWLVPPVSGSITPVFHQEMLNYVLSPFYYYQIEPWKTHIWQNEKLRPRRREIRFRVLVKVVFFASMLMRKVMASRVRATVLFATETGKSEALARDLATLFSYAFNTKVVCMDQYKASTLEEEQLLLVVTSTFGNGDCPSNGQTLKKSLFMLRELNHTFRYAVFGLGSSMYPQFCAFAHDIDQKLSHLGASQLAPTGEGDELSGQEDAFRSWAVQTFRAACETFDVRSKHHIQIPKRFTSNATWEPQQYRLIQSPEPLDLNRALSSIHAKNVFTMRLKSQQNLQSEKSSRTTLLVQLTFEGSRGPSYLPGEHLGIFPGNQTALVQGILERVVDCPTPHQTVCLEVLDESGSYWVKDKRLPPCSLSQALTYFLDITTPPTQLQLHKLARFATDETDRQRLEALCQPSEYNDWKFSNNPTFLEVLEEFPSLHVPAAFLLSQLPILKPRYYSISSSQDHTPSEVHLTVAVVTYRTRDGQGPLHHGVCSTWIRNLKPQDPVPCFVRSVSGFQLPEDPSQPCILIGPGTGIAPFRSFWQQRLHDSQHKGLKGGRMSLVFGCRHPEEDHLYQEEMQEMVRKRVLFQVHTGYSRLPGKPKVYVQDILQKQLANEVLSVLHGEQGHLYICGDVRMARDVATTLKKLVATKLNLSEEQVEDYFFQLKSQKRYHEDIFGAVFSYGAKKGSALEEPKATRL
Put plainly: Inhibition against induced Nitric Oxide Synthase(iNOS).

For assay [5], the target named is Nitric oxide synthase 1 (Rattus norvegicus) (UniProt P29476). Put plainly: (§1) Time dependent inhibition against neuronal Nitric Oxide Synthase(nNOS).
In assay [6] the target is T1, Nitric oxide synthase 1. The description is as §1.

T1 sequence (P29476 whole entry): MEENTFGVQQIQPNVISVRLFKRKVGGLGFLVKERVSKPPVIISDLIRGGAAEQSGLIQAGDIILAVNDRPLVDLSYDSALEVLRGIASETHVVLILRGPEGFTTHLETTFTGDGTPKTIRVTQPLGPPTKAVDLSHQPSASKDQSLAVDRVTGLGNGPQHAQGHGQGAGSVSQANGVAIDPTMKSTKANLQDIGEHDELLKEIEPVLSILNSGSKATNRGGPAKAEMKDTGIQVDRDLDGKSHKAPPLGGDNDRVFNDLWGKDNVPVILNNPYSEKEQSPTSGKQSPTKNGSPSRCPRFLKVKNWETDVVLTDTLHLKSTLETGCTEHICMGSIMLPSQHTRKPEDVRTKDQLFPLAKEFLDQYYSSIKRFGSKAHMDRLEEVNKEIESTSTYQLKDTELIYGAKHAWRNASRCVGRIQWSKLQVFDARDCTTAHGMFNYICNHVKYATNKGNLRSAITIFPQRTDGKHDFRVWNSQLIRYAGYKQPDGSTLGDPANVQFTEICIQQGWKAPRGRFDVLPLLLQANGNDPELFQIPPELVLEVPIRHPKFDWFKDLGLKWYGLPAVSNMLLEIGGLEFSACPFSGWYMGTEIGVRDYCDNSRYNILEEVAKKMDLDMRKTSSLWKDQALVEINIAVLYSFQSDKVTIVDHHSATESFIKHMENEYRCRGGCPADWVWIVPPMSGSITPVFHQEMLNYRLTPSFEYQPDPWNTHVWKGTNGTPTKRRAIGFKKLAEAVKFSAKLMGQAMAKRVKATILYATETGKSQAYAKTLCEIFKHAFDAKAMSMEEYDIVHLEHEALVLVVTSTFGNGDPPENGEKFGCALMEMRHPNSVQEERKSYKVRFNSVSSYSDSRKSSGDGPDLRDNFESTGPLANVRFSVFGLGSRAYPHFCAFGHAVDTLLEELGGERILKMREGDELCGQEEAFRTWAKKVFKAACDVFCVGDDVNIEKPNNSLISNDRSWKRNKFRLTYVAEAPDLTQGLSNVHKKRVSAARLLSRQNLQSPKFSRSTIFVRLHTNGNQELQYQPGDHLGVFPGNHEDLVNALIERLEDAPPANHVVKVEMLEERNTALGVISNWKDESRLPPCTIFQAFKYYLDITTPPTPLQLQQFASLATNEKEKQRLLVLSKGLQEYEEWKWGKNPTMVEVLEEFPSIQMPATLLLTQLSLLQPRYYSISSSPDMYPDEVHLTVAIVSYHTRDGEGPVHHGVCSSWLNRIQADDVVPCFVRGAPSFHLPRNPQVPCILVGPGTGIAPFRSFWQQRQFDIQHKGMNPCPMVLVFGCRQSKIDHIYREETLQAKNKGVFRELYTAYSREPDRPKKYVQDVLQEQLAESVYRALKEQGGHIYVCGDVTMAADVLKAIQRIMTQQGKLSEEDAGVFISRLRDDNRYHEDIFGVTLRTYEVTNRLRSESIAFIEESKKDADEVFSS
Chain of Nitric oxide synthase 1 (Rattus norvegicus) (P29476 whole entry): as above

Consider `CCCCC/N=C(\N)n1cccn1`, for which the Ki on Nitric oxide synthase 1 [1] was determined as 60 µM; at Nitric oxide synthase 3, 700 µM; in assay [4], 50 µM. The Ratio was determined as 14 in assay [2] and 0.8 in assay [3].
The corresponding values for `Cc1cnn(C(=N)N)c1` are 12 µM, 190 µM, 3 µM, 16 and 0.3.
On to `CCCC/N=C(\N)NCCC`, for which the values for the Ki (at Nitric oxide synthase 1 [1]; at Nitric oxide synthase 3; in assay [4]) were 700 µM, 650 µM and 780 µM, respectively. The Ratio came to 0.9 in assay [2] and 1.1 in assay [3].
For `Cc1ccn(C(=N)N)n1` the same measures were 8 µM, 100 µM, 9 µM, 13 and 1.1.
The corresponding values for `N=C(Nc1cccc(CN)c1)n1cccn1` are 2 µM, 200 µM, 12 µM, 100 and 6.
Regarding `CCC/N=C(\N)n1cccn1`, the Ki on Nitric oxide synthase 1 [1] was found to be 3 µM; at Nitric oxide synthase 3, 9 µM; on Nitric oxide synthase 1 [6], 33 µM; in assay [4], 5 µM. In assay [5], this molecule displayed a K inact of 0.024 min⁻¹. Moreover, the Ratio in assay [2] was 3; in assay [3] it was 1.7.
Turning to `CC(C)C/N=C(\N)n1cccn1`, the Ki turned out to be 45 µM on Nitric oxide synthase 1 [1], 180 µM at Nitric oxide synthase 3 and 150 µM in assay [4]. Further, the Ratio in assay [2] is 4; in assay [3], 3.3.
For the molecule `NCCCC/N=C(\N)n1cccn1`, the Ki at Nitric oxide synthase 1 [1] is 6 µM; at Nitric oxide synthase 3, 460 µM; in assay [4], 50 µM. In addition, the Ratio in assay [2] was 77; in assay [3], 8.3.
Turning to `N=C(Nc1cccc(CN)c1)c1cccs1`, the Ki on Nitric oxide synthase 3 was 0.46 µM; in assay [4], 0.12 µM.
`N=C(NC1CC1)n1cccn1`: the Ki on Nitric oxide synthase 1 [1] came out at 50 µM; on Nitric oxide synthase 3, 120 µM; in assay [4] it was 80 µM. Further, the Ratio is 2.4 in assay [2] and 1.6 in assay [3].
For `Cc1cc(C)n(C(=N)N)n1` the same measures were 350 µM, 1500 µM, 750 µM, 4.3 and 2.1.
`CCCC/N=C(\N)n1cccn1`: the Ki at Nitric oxide synthase 1 [1] amounted to 14 µM; at Nitric oxide synthase 3, 25 µM; in assay [4], 14 µM. Besides, the Ratio was determined as 1.8 in assay [2] and 1 in assay [3].
Take `N=C(NCC1CC1)n1cccn1`: the figures for the Ki (on Nitric oxide synthase 1 [1]; on Nitric oxide synthase 3; in assay [4]) were 10 µM, 80 µM and 22 µM, respectively. Also, the Ratio in assay [2] is 8; in assay [3] it was 2.2.
For `N=C(N)n1cccn1` the same measures were 0.4 µM, 0.5 µM, 0.7 µM, 1.3 and 1.8.
For the molecule `N=C(Nc1cccc(CN)c1)c1ccco1`, the Ki in assay [4] stood at 0.16 µM.
